In patent US4798807A, “Monoclonal antibodies and method for detecting dioxins and dibenzofurans” (priority 1986, dated 1989):

The compounds below were run against monoclonal antibody DD-4 (assay: Competition ELISA with monoclonal antibody DD-4). Settings: competitor vs monoclonal antibody DD-4; plate coated with A-triCDD-RSA.
Format: binding, BALB/c mice
Description: (§1) In this case the hybridomas were then screened for their ability to distinguish A-triCDD-BSA and A-triCDD-RSA from BSA and RSA. On the basis of this initial screen about 25 stable, antibody-producing colonies were isolated, subcloned, and frozen. The remaining clones were again screened for their abilities to recognize free TCDD in suspension. Experimentally, on the order of 10-100 nanograms of TCDD in hexane was dried, 0.5 ml of saline with BSA (1 mg/ml) was added and sonificated for 2 hrs. […] Identical procedures were followed for other dioxin isomers. A dilution series in microtiter plate wells was then made with the suspended TCDD, antibody adde, and the competition ELISA completed. Competition ELISA test procedures are discussed in detail in the following reference: Butt, W. R. (1984) "Practical Immunoassay: The State of the Art", Marcel Dekker, Inc., N.Y., N.Y.
(§2) A large part of the success that we have had in characterizing the binding specificities of our monoclonal antibodies comes from having developed a reliable competition ELISA protocol. Our preferred assay starts from stock solutions at 10 ppm in hexane of the various compounds listed in Table I. 10 μl of hexane solution is aliquoted into a small vial, evaporated under a stream of nitrogen gas, and 500 μl of a 1 mg/ml solution of BSA in phosphate buffered saline with 0.1% BSA is added. The vial is capped and placed in an ultrasonic cleaning waterbath for two hours. Two hours of sonification gives a more reproducible assay than does an hour. During the sonification, the hexane appears to evaporate completely, and one is left with an aqueous solution containing the dioxin. Microtiter plates coated with A-triCDD-RSA are blocked with a three percent solution of ovalbumin and a two-fold dilution series of sonificated dioxin-BSA is then made, covering the range 100 ppb-0.1 ppb. In each well of the plate 100 μl of the sonificated dioxin-BSA solution is mixed with n equal volume of antibody. The antibody partitions between the dioxin adsorbed to the BSA, and the A-tri-CDD-RSA on the plate.
(§3) A-TriCDD-RSA was adsorbed onto the surface of the wells of a microtiter plate. The various competitors listed were suspended in saline containing bovine serum albumin (BSA). These solutions were made by sonificating 10 μl of dioxin solution in hexane with 500 μl of saline-BSA. A dilution series of these dioxin-BSA solutions was then made covering the range of 100-0.2 ppb, and placed in the microtiter plate wells. An equal volume of DD-1 monoclonal antibody was then added, and allowed to react for 1 hour. Tne antibody binds either to the A-TriCDD-RSA on the plate or the dioxin in solution. After the hour, the solution phase is removed, the plate washed, and it is reincubated for an hour with peroxidase-conjugated goat-anti-mouse-immunoglobulins. A second washing is then done, and substrate (ABTS) added to the peroxidase. The enzyme-antibody conjugate and substrate function as a "developer", allowing the visualization of the DD-1 bound to the A-triCDD-RSA on the plate. Results are then expressed as a fraction of the response in wells with no competitor. […] At about 20 ppb of 2,3,7,8-TCDD the relative ELISA response is half of control, meaning that half the DD-1 antibody bound to the solution phase dioxin and half bound to the A-triCDD-RSA on the plate. For 1,2,3,7(8)-TCDD, 50% inhibition occurs at about 4 ppb, indicating the DD-1 prefers 1,2,3,7(8)-TCDD to 2,3,7,8-TCDD.
(§4) The FIGURE and Table II show representative competition data using several chlorinated compounds as competitors. From such data, one can determine the concentration required to inhibit antibody binding by 50% (I50). Table II lists the I50 for all compounds tested with the antibodies. In reporting these values, factors of two are about the limit of significance. […] The binding specificities of these antibodies are highly desirable, since they prefer the most toxic of the dioxin and dibenzofuran isomers.

Compound	I50 (inhibits antibody binding by 50%) [ng]
Oc1c(Cl)c(Cl)c(Cl)c(Cl)c1Cl [Pentachlorophenol]	> 2000
Clc1ccc2c(c1)Oc1c(Cl)c(Cl)c(Cl)c(Cl)c1O2 [1,2,3,4,7-penta-CDD]	> 2
O=C(O)COc1cc(Cl)c(Cl)cc1Cl [2,4,5-Trichlorophenoxyacet, 2,4,5-Trichloro-phenoxyacet]	> 2000
Oc1ccc(Cl)cc1Cl [2,4-Dichlorophenol]	> 2000
ClC1=C(Cl)C2(Cl)C3C(Cl)C(Cl)CC3C1(Cl)C2(Cl)Cl (stereo not drawn) [Chlordane]	> 2000
Clc1ccc(-c2c(Cl)cc(Cl)c(Cl)c2Cl)c(Cl)c1Cl [2,2',3,3',4,4',6-Hepta-CBP]	> 200
Clc1ccc(Cl)c(-c2c(Cl)c(Cl)c(Cl)c(Cl)c2Cl)c1Cl [2,2',3,3',4,5,6,6'-Octa-CBP]	> 200
Toxaphene	> 2000
O=[N+]([O-])c1c(Cl)ccc2c1Oc1cc(Cl)c(Cl)cc1O2 [1-nitro-2,7,8-TriCDD]	0.02
O=C(O)COc1ccc(Cl)cc1Cl [2,4-Dichlorophenoxyacetic, 2,4-Dichlorophenoxy-acetic]	> 2000

These compounds were tested against monoclonal antibody DD-5 (assay: Competition ELISA with monoclonal antibody DD-5). Settings: competitor vs monoclonal antibody DD-5; plate coated with A-triCDD-RSA.
Format: binding, Biozzi mice
Description: as §1, §2, §3, §4

Compound	I50 (inhibits antibody binding by 50%) [ng]
Oc1c(Cl)c(Cl)c(Cl)c(Cl)c1Cl [Pentachlorophenol]	> 2000
O=C(O)COc1cc(Cl)c(Cl)cc1Cl [2,4,5-Trichlorophenoxyacet, 2,4,5-Trichloro-phenoxyacet]	> 2000
Oc1ccc(Cl)cc1Cl [2,4-Dichlorophenol]	> 2000
ClC1=C(Cl)C2(Cl)C3C(Cl)C(Cl)CC3C1(Cl)C2(Cl)Cl (stereo not drawn) [Chlordane]	> 2000
Clc1ccc(-c2c(Cl)cc(Cl)c(Cl)c2Cl)c(Cl)c1Cl [2,2',3,3',4,4',6-Hepta-CBP]	> 10
Clc1ccc(Cl)c(-c2c(Cl)c(Cl)c(Cl)c(Cl)c2Cl)c1Cl [2,2',3,3',4,5,6,6'-Octa-CBP]	> 10
Toxaphene	> 2000

These compounds were tested against monoclonal antibody DD-1 (assay: Competition ELISA with monoclonal antibody DD-1). Settings: competitor vs monoclonal antibody DD-1; plate coated with A-triCDD-RSA.
Format: binding, Biozzi mice
Description: as §1, §2, §3, §4

Compound	I50 (inhibits antibody binding by 50%) [ng]
Oc1c(Cl)c(Cl)c(Cl)c(Cl)c1Cl [Pentachlorophenol]	> 2000
Clc1ccc2c(c1)Oc1c(Cl)c(Cl)c(Cl)c(Cl)c1O2 [1,2,3,4,7-penta-CDD]	> 2
O=C(O)COc1cc(Cl)c(Cl)cc1Cl [2,4,5-Trichlorophenoxyacet, 2,4,5-Trichloro-phenoxyacet]	2000
Oc1ccc(Cl)cc1Cl [2,4-Dichlorophenol]	2000
ClC1=C(Cl)C2(Cl)C3C(Cl)C(Cl)CC3C1(Cl)C2(Cl)Cl (stereo not drawn) [Chlordane]	> 2000
Clc1ccc(-c2c(Cl)cc(Cl)c(Cl)c2Cl)c(Cl)c1Cl [2,2',3,3',4,4',6-Hepta-CBP]	> 200
Clc1ccc(Cl)c(-c2c(Cl)c(Cl)c(Cl)c(Cl)c2Cl)c1Cl [2,2',3,3',4,5,6,6'-Octa-CBP]	> 200
O=[N+]([O-])c1c(Cl)ccc2c1Oc1cc(Cl)c(Cl)cc1O2 [1-nitro-2,7,8-TriCDD]	0
O=C(O)COc1ccc(Cl)cc1Cl [2,4-Dichlorophenoxyacetic, 2,4-Dichlorophenoxy-acetic]	> 2000

Each compound was assayed against monoclonal antibody DD-6 (assay: Competition ELISA with monoclonal antibody DD-6). Settings: competitor vs monoclonal antibody DD-6; plate coated with A-triCDD-RSA.
Format: binding, Biozzi mice
Description: as §1, §2, §3, §4

Compound	I50 (inhibits antibody binding by 50%) [ng]
Oc1c(Cl)c(Cl)c(Cl)c(Cl)c1Cl [Pentachlorophenol]	> 2000
Clc1ccc2c(c1)Oc1c(Cl)c(Cl)c(Cl)c(Cl)c1O2 [1,2,3,4,7-penta-CDD]	> 2
O=C(O)COc1cc(Cl)c(Cl)cc1Cl [2,4,5-Trichlorophenoxyacet, 2,4,5-Trichloro-phenoxyacet]	2700
Oc1ccc(Cl)cc1Cl [2,4-Dichlorophenol]	> 2000
ClC1=C(Cl)C2(Cl)C3C(Cl)C(Cl)CC3C1(Cl)C2(Cl)Cl (stereo not drawn) [Chlordane]	> 2000
Clc1ccc(-c2c(Cl)cc(Cl)c(Cl)c2Cl)c(Cl)c1Cl [2,2',3,3',4,4',6-Hepta-CBP]	> 200
Clc1ccc(Cl)c(-c2c(Cl)c(Cl)c(Cl)c(Cl)c2Cl)c1Cl [2,2',3,3',4,5,6,6'-Octa-CBP]	> 200
Toxaphene	> 2000
O=[N+]([O-])c1c(Cl)ccc2c1Oc1cc(Cl)c(Cl)cc1O2 [1-nitro-2,7,8-TriCDD]	> 0.004

These compounds were tested against monoclonal antibody DD-3 (assay: Competition ELISA with monoclonal antibody DD-3). Settings: competitor vs monoclonal antibody DD-3; plate coated with A-triCDD-RSA.
Format: binding, BALB/c mice
Description: as §1, §2, §3, §4

Compound	I50 (inhibits antibody binding by 50%) [ng]
Oc1c(Cl)c(Cl)c(Cl)c(Cl)c1Cl [Pentachlorophenol]	> 2000
Clc1ccc2c(c1)Oc1c(Cl)c(Cl)c(Cl)c(Cl)c1O2 [1,2,3,4,7-penta-CDD]	> 2
O=C(O)COc1cc(Cl)c(Cl)cc1Cl [2,4,5-Trichlorophenoxyacet, 2,4,5-Trichloro-phenoxyacet]	> 2000
Oc1ccc(Cl)cc1Cl [2,4-Dichlorophenol]	> 2000
ClC1=C(Cl)C2(Cl)C3C(Cl)C(Cl)CC3C1(Cl)C2(Cl)Cl (stereo not drawn) [Chlordane]	> 2000
Clc1ccc(-c2c(Cl)cc(Cl)c(Cl)c2Cl)c(Cl)c1Cl [2,2',3,3',4,4',6-Hepta-CBP]	> 200
Clc1ccc(Cl)c(-c2c(Cl)c(Cl)c(Cl)c(Cl)c2Cl)c1Cl [2,2',3,3',4,5,6,6'-Octa-CBP]	> 200
Toxaphene	> 2000
O=[N+]([O-])c1c(Cl)ccc2c1Oc1cc(Cl)c(Cl)cc1O2 [1-nitro-2,7,8-TriCDD]	0.15
O=C(O)COc1ccc(Cl)cc1Cl [2,4-Dichlorophenoxyacetic, 2,4-Dichlorophenoxy-acetic]	> 2000
